Measured values published in patent publication US11046691B1 (IDEAYA BIOSCIENCES, INC., priority 2018, dated 2021).

Biological target: hMAT2A (Homo sapiens (Human), UniProt P31153)
Assay: Phosphate Sensor Fluorescence Assay (MAT2A enzyme inhibition)
Assay type: biochemical
Settings: L-methionine 500 uM, ATP 500 uM, class symbols
Outline: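 Recombinant MAT2A preincubated 15 min at room temperature with compound, then reacted 1 h at room temperature with 500 uM L-methionine and 500 uM ATP in Tris pH 7.5 buffer containing PNP/7-MEG.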

Sequence of hMAT2A (P31153 whole entry): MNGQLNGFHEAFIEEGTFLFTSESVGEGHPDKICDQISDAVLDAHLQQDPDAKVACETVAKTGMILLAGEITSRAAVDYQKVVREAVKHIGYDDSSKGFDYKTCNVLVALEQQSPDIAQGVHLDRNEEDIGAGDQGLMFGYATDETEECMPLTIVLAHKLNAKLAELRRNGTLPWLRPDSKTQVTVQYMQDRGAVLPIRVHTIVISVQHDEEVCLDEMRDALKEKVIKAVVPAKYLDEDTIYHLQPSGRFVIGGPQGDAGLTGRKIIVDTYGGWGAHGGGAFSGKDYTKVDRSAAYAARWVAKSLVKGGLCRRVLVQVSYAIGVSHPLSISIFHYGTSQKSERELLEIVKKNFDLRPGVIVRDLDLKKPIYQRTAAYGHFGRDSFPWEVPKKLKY

IC50 [nM] | SMILES
< 200 | C[C@]1(Nc2nc(=O)n(-c3ccccc3Cl)c3nc(C(F)(F)F)ccc23)C[C@@H](O)C1 [Example 269, 1-(2-chlorophenyl)-4-(((1s,3s)-3-hydroxy-1-methylcyclobutyl)amino)-7-(trifluoromethyl)pyrido[2,3-d]pyrimidin-2(1H)-one]
< 200 | O=c1nc(NCC2CCO2)c2ccc(C(F)(F)F)nc2n1-c1ccccc1Cl (stereo not drawn) [Example 271, 1-(2-chlorophenyl)-4-[(oxetan-2-ylmethyl)amino]-7-(trifluoromethyl)-pyrido[2,3-d]pyrimidin-2(1H)-one]
< 200 | O=c1nc(NC2COC2)c2ccc(C(F)(F)F)nc2n1-c1ccccc1Cl [Example 274, 1-(2-chlorophenyl)-4-(oxetan-3-yl-amino)-7-(trifluoromethyl)pyrido[2,3-d]pyrimidin-2(1H)-one]
< 200 | N#CC1(Nc2nc(=O)n(-c3ccccc3Cl)c3nc(C(F)(F)F)ccc23)CCC1 [Example 277, 1-((1-(2-chlorophenyl)-2-oxo-7-(trifluoromethyl)-1,2-dihydropyrido[2,3-d]pyrimidin-4-yl)amino)cyclobutane-1-carbonitrile]
< 200 | N#CCCNc1nc(=O)n(-c2ccccc2Cl)c2nc(C(F)(F)F)ccc12 [Example 278, 3-((1-(2-chlorophenyl)-2-oxo-7-(trifluoro-methyl)-1,2-dihydropyrido-[2,3-d]pyrimidin-4-yl)amino)-propanenitrile]
< 200 | CN(C)c1nc(=O)n(-c2ccc3[nH]ncc3c2)c2cc(Cl)ccc12 [Example 280, 7-chloro-4-(dimethylamino)-1-(1H-indazol-5-yl)quinazolin-2(1H)-one]
< 200 | Cc1ncccc1-n1c(=O)nc(N2CC[C@@H](O)C2)c2ccc(C(F)(F)F)cc21 [Example 283]
< 200 | Cc1ncccc1-n1c(=O)nc(N)c2ccc(C(F)(F)F)cc21 [Example 285]
< 200 | NC(=O)CNc1nc(=O)n(-c2ccccc2Cl)c2nc(C(F)(F)F)ccc12 [Example 287, 2-((1-(2-chlorophenyl)-2-oxo-7-(trifluoromethyl)-1,2-dihydropyrido[2,3-d]pyrimidin-4-yl)amino)acetamide]
< 200 | C[C@@H](O)CNc1nc(=O)n(-c2ccccc2Cl)c2nc(C(F)(F)F)ccc12 [Example 294, 4-[((2R)-2-hydroxypropyl)amino]-1-(2-chlorophenyl)-7-(trifluoromethyl)-pyrido[2,3-d]pyrimidin-2(1H)-one]
< 200 | O=c1nc(NCCO)c2ccc(C(F)(F)F)nc2n1-c1ccccc1Cl [Example 296, 1-(2-chlorophenyl)-4-[(2-hydroxy-Iethyl)amino]-7-(trifluoromethyl) pyrido[2,3-d]pyrimidin-2(1H)-one]
< 200 | O=c1nc(NC23CC(O)(C2)C3)c2ccc(C(F)(F)F)nc2n1-c1ccccc1Cl [Example 297, 1-(2-chlorophenyl)-4-[(3-hydroxy-bicyclo[1.1.1]pentyl)amino]-7-(trifluoro-methyl)-pyrido[2,3-d]pyrimidin-2(1H)-one]
< 200 | CO[C@H]1C[C@H](Nc2nc(=O)n(-c3ccccc3Cl)c3nc(C(F)(F)F)ccc23)C1 [Example 301]
< 200 | CNc1nc(=O)n(-c2ccccc2Cl)c2cc(C(F)(F)F)c(Br)cc12 [Example 302, 6-bromo-1-(2-chlorophenyl)-4-(methylamino)-7-(trifluoromethyl)-quinazolin-2(1H)-one]
< 200 | CNc1nc(=O)n(-c2ccccc2)c2cc(C(F)(F)F)c(Br)cc12 [Example 303, 6-bromo-4-(methylamino)-1-phenyl-7-(trifluoromethyl)quinazolin-2(1H)-one]
< 200 | CN(C)c1nc(=O)n(-c2ccc3[nH]cnc3c2)c2cc(Cl)ccc12 [Example 306, 1-benzimidazol-5-yl-4-(dimethylamino)-7-chlorohydroquinazolin-2-one]
< 200 | O=c1nc(NC2CC2)c2ccc(C(F)(F)F)nc2n1-c1ccccc1Cl [Example 308, 1-(2-chlorophenyl)-4-(cyclopropyl-amino)-7-(trifluoromethyl)pyrido[2,3-d]pyrimidin-2(1H)-one]
< 200 | CNc1nc(=O)n(-c2ccc(F)c(O)c2)c2cc(Cl)ccc12 [Example 310, 7-chloro-1-(4-fluoro-3-hydroxyphenyl)-4-(methylamino)hydroquinazolin-2-one]
< 200 | CNc1nc(=O)n(-c2ccncc2Cl)c2nc(C(F)(F)F)ccc12 [Example 312]

Continued, compound first:

SMILES | IC50 [nM]
C[C@]1(O)C[C@@H](Nc2nc(=O)n(-c3ccccc3Cl)c3nc(C(F)(F)F)ccc23)C1 [Example 268, 1-(2-chlorophenyl)-4-(((1s,3s)-3-hydroxy-3-methylcyclobutyl)amino)-7-(trifluoromethyl)pyrido[2,3-d]pyrimidin-2(1H)-one] | < 200
CO[C@H]1C[C@@H](Nc2nc(=O)n(-c3ccccc3Cl)c3nc(C(F)(F)F)ccc23)C1 [Example 270, 1-(2-chlorophenyl)-4-(((1s,3s)-3-methoxycyclobutyl)amino)-7-(trifluoro-methyl)pyrido[2,3-d]pyrimidin-2(1H)-one] | < 200
[2H]C([2H])([2H])Nc1nc(=O)n(-c2ccccc2C)c2nc(C(F)(F)F)ccc12 [Example 272, 4-((methyl-d3)amino)-1-(2-methyl-phenyl)-7-(trifluoromethyl)pyrido[2,3-d]pyrimidin-2(1H)-one] | < 200
O=c1nc(N[C@H]2C[C@](O)(C(F)(F)F)C2)c2ccc(C(F)(F)F)nc2n1-c1ccccc1Cl [Example 275, 4-{[(cis)-3-hydroxy-3-(trifluoromethyl)-cyclobutyl]amino}-1-(2-chlorophenyl)-7-(trifluoromethyl)pyrido[2,3-d]-pyrimidin-2(1H)-one] | 500 to 1000
O=c1nc(N2CC[C@@H](O)C2)c2ccc(Cl)cc2n1-c1ccc2[nH]ncc2c1 [Example 279, (R)-7-chloro-4-(3-hydroxypyrrolidin-1-yl)-1-(1H-indazol-5-yl)quinazolin-2(1H)-one] | < 200
O=c1nc(N2CC[C@@H](O)C2)c2ccc(Cl)cc2n1-c1ccc2[nH]cnc2c1 [Example 281, (R)-7-chloro-4-(3-hydroxypyrrolidin-1-yl)-1-(1H-benzimidazol-5-yl)quinazolin-2(1H)-one] | < 200
Cc1ncccc1-n1c(=O)nc(NCC(F)F)c2ccc(C(F)(F)F)cc21 [Example 282, 4-((2,2-difluoroethyl)amino)-1-(2-methylpyridin-3-yl)-7-(trifluoromethyl)-quinazolin-2(1H)-one] | < 200
CNc1nc(=O)n(-c2cccnc2C)c2cc(C(F)(F)F)ccc12 [Example 284] | < 200
O=c1nc(N2CCOCC2)c2ccc(C(F)(F)F)nc2n1-c1ccccc1Cl [Example 286, 1-(2-chlorophenyl)-4-morpholin-4-yl-7-(trifluoromethyl)pyrido[2,3-d]pyrimidin-2(1H)-one] | < 200
C[C@H](O)CNc1nc(=O)n(-c2ccccc2Cl)c2nc(C(F)(F)F)ccc12 [Example 293, 4-[((2S)-2-hydroxypropyl)amino]-1-(2-chlorophenyl)-7-(trifluoromethyl)-pyrido[2,3-d]pyrimidin-2(1H)-one] | < 200
O=c1nc(NCC2(O)CC2)c2ccc(C(F)(F)F)nc2n1-c1ccccc1Cl [Example 295, 1-(2-chlorophenyl)-4-{[(hydroxycyclo-propyl)methyl]amino}-7-(trifluoro-methyl)-pyrido[2,3-d]pyrimidin-2(1H)-one] | < 200
O=c1nc(N[C@H]2C[C@@](O)(C(F)(F)F)C2)c2ccc(C(F)(F)F)nc2n1-c1ccccc1Cl [Example 299] | 200 to 500
C[C@]1(O)C[C@H](Nc2nc(=O)n(-c3ccccc3Cl)c3nc(C(F)(F)F)ccc23)C1 [Example 300, 4-[((trans)-3-hydroxy-3-methylcyclo-butyl)amino]-1-(2-chlorophenyl)-7-(trifluoromethyl)pyrido[2,3-d]pyrimidin-2(1H)-one] | < 200
CNc1nc(=O)n(-c2ccccc2Cl)c2cc(C(F)(F)F)c(F)cc12 [Example 304, 1-(2-chlorophenyl)-6-fluoro-4-(methyl-amino)-7-(trifluoromethyl)hydro-quinazolin-2-one] | < 200
CNc1nc(=O)n(-c2ccc3[nH]cnc3c2)c2cc(Cl)ccc12 [Example 307, 1-benzimidazol-5-yl-7-chloro-4-(methyl-amino)hydroquinazolin-2-one] | < 200
CNc1nc(=O)n(-c2ncccn2)c2cc(C3CC3)ccc12 [Example 309, 7-cyclopropyl-4-(methylamino)-1-pyrimidin-2-ylhydroquinazolin-2-one] | 1000 to 10000
CNc1nc(=O)n(-c2ccncc2)c2nc(C(F)(F)F)ccc12 [Example 313] | 500 to 1000

Same assay, conditions: L-methionine 500 uM, ATP 500 uM, numeric bound

IC50 [nM] | SMILES
> 10000 | O=c1[nH]c(=O)n(-c2ccccc2Cl)c2nc(C(F)(F)F)ccc12 [Example 288, 1-(2-chlorophenyl)-4-hydroxy-7-(trifluoromethyl)hydropyridino[2,3-d]-pyrimidin-2-one]
> 10000 | O=c1nc(O)c2c(C3=CCNC3)cc(Cl)cc2n1-c1ccccc1 [Example 289, 7-chloro-5-(2,5-dihydro-1H-pyrrol-3-yl)-4-hydroxy-1-phenylquinazolin-2(1H)-one]
> 10000 | CC(C)(C)OC(=O)N1CC=C(c2cc(Cl)cc3c2c(O)nc(=O)n3-c2ccccc2)C1 [Example 290, tert-butyl 3-(7-chloro-4-hydroxy-2-oxo-1-phenyl-1,2-dihydroquinazolin-5-yl)-2,5-dihydro-1H-pyrrole-1-carboxylate]
> 10000 | O=c1nc(O)c2c(-c3ccncc3)cc(Cl)cc2n1-c1ccccc1 [Example 291, 7-chloro-4-hydroxy-1-phenyl-5-(pyridin-4-yl)quinazolin-2(1H)-one]
> 10000 | O=c1[nH]c(=O)n(-c2cccc3nc[nH]c23)c2cc(Cl)ccc12 [Example 305, 1-benzimidazol-7-yl-7-chloro-1,3-dihydroquinazoline-2,4-dione]
> 10000 | COc1ccc(F)c(-n2c(=O)[nH]c(=O)c3ccc(Cl)cc32)c1 [Example 311, 7-chloro-1-(2-fluoro-5-methoxyphenyl)-quinazoline-2,4(1H,3H)-dione]
